From US5753673A, “Quinolinecarboxylic acid derivatives” (Taisho Pharmaceutical Co., Ltd., priority 1994, dated 1998)
Where a name gives a salt, the structure may show the parent alone. Read-outs that look alike come from different tables or passages of the source.

Molecular target: T1, serotonin 4 receptor (5-HT4) (Cavia porcellus, UniProt O70528)
T1 construct: from tissue; host or cells: longitudinal muscle strips of guinea pig ileum (Harley guinea pigs)
Assay: Stimulating activity on serotonin 4 receptor (twitch response in guinea pig ileum)
Format: cell-based
Method: Stimulating activity on serotonin 4 receptor
From Harley guinea pigs weighing 250 to 400 g, a section of ileum 10 to 20 cm proximal to the ileocecal junction was removed. Longitudinal muscle strips obtained from the ileum were used for this assay. The preparations were suspended in Krebs' solution at 32 to 34° C., bubbled continuously with 95% O2 and 5% CO2, and subjected to initial tension of about 0.8 g. Responses were recorded isometrically. Twitch responses were evoked by electrical stimulation (0.2 Hz, 1 msec pulse duration). The preparations were stimulated at supramaximal voltage for 2 to 3 hours, and were then allowed to equilibrate for about 1 hour at submaximal voltage. […] The preparations were left for at least 45 minutes before cumulative addition of each agonist.
The quinolinecarboxylic acid derivatives of the present invention were employed as sample compounds. For comparison, the following compounds were employed. These compounds were diluted by dissolving them in distilled water or in DMSO.
The data obtained was analyzed by RS1 (BBN Software Product Co.).

[1] = twitch response in guinea pig ileum, maximum contraction of sample compound = 100%, read-out: ED50 (concentration enhancing the twitch response by 50%)

T1 sequence (O70528 whole entry): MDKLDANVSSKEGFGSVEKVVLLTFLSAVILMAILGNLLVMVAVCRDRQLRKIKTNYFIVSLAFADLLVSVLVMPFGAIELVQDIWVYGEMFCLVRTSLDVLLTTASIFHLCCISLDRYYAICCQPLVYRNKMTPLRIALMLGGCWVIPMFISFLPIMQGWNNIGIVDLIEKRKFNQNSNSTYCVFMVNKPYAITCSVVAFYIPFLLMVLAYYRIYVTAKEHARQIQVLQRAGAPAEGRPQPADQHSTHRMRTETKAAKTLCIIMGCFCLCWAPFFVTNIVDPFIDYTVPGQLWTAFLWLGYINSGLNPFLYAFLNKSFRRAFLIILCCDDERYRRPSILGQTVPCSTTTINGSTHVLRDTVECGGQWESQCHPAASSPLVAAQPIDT

Row | Compound | EC50 [nM] | EC50 [1] [nM]
1 | CC(C)n1c(=O)c(C(=O)O[C@H]2C[C@H]3CC[C@@H](C2)N3CCOc2ccccc2)cc2ccccc21 [Compound 49, Endo-8-(2-phenoxyethyl)-8-azabicyclo[3.2.1]oct-3-yl 1-isopropyl-2-oxo-1,2-dihydro-3-quinolinecarboxylate hydrochloride] | 39 | 
2 | CCOC(=O)CCCN1[C@@H]2CC[C@H]1C[C@@H](OC(=O)c1cc3ccccc3n(C(C)C)c1=O)C2 [Compound 51, Endo-8-(3-(ethoxycarbonyl)propyl)-8-azabicyclo[3.2.1]oct-3-yl 1-isopropyl-2-oxo-1,2-dihydro-3-quinolinecarboxylate hydrochloride] | 23 | 
3 | CC(=O)CN1[C@@H]2CC[C@H]1C[C@@H](OC(=O)c1cc3ccccc3n(C(C)C)c1=O)C2 [Compound 52, Endo-8-(2-oxopropyl)-8-azabicyclo[3.2.1]oct-3-yl 1-isopropyl-2-oxo-1,2-dihydro-3-quinolinecarboxylate hydrochloride] | 24.6 | 
4 | CC(=O)CCCN1[C@@H]2CC[C@H]1C[C@@H](OC(=O)c1cc3ccccc3n(C(C)C)c1=O)C2 [Compound 53, Endo-8-(4-oxopentyl)-8-azabicyclo[3.2.1]oct-3-yl 1-isopropyl-2-oxo-1,2-dihydro-3-quinolinecarboxylate hydrochloride] | 26.4 | 
5 | CC(C)n1c(=O)c(C(=O)O[C@H]2C[C@H]3CC[C@@H](C2)N3CCC#N)cc2ccccc21 [Compound 55, Endo-8-(2-cyanoethyl)-8-azabicyclo[3.2.1]oct-3-yl 1-isopropyl-2-oxo-1,2-dihydro-3-quinolinecarboxylate] | 27.3 | 
6 | CC(C)n1c(=O)c(C(=O)O[C@H]2C[C@H]3CC[C@@H](C2)N3CC(N)=O)cc2ccccc21 [Compound 56, Endo-8-carbamoylmethyl-8-azabicyclo[3.2.1]oct-3-yl 1-isopropyl-2-oxo-1,2-dihydro-3-quinolinecarboxylate] | 31.4 | 
7 | COc1ccc(N2[C@@H]3CC[C@H]2C[C@@H](OC(=O)c2cc4ccccc4n(C(C)C)c2=O)C3)cc1 [Compound 57, endo-8-(4-methoxyphenyl)-8-azabicyclo[3.2.1]oct-3-yl 1-isopropyl-2-oxo-1,2-dihydro-3-quinolinecarboxylate, reference compound] |  | > 3000
8 | CC(C)n1c(=O)c(C(=O)O[C@H]2C[C@H]3CC[C@@H](C2)N3c2nccs2)cc2ccccc21 [Compound 58, endo-8-(2-thiazolyl)-8-azabicyclo[3.2.1]oct-3-yl 1-isopropyl-2-oxo-1,2-dihydro-3-quinolinecarboxylate hydrochloride, reference compound] |  | 1140
9 | COCCOCCN1[C@@H]2CC[C@H]1C[C@@H](OC(=O)c1cc3ccccc3n(C(C)C)c1=O)C2 [Compound 59, Endo-8-(2-(2-methoxyethoxy)ethyl)-8-azabicyclo[3.2.1]oct-3-yl 1-isopropyl-2-oxo-1,2-dihydro-3-quinolinecarboxylate hydrochloride] | 73.7 | 
